Values of other authors in US20210339043A1, “NEURAL STIMULATION VIA VISUAL STIMULATION” (Cognito Therapeutics, Inc., priority 2016, published 2021).

Conditions: 70 kg adult; for estimated absorbed radiation dose, Adrenals: organ: Adrenals; for estimated absorbed radiation dose, Brain: organ: Brain; for estimated absorbed radiation dose, Breasts: organ: Breasts; for estimated absorbed radiation dose, Heart Wall: organ: Heart Wall; for estimated absorbed radiation dose, Kidneys: organ: Kidneys; for estimated absorbed radiation dose, Lungs: organ: Lungs; for estimated absorbed radiation dose, Muscle: organ: Muscle; for estimated absorbed radiation dose, Ovaries: organ: Ovaries; for estimated absorbed radiation dose, Pancreas: organ: Pancreas; for estimated absorbed radiation dose, Red marrow: organ: Red marrow; for estimated absorbed radiation dose, Skin: organ: Skin; for estimated absorbed radiation dose, Spleen: organ: Spleen; for estimated absorbed radiation dose, Testes: organ: Testes; for estimated absorbed radiation dose, Thymus: organ: Thymus; for estimated absorbed radiation dose, Thyroid: organ: Thyroid; for estimated absorbed radiation dose, Urinary bladder wall: organ: Urinary bladder wall; for estimated absorbed radiation dose, Uterus: organ: Uterus

| SMILES | estimated absorbed radiation dose, Adrenals [rad/mCi] | estimated absorbed radiation dose, Brain [rad/mCi] | estimated absorbed radiation dose, Breasts [rad/mCi] | estimated absorbed radiation dose, Heart Wall [rad/mCi] | estimated absorbed radiation dose, Kidneys [rad/mCi] | estimated absorbed radiation dose, Lungs [rad/mCi] | estimated absorbed radiation dose, Muscle [rad/mCi] | estimated absorbed radiation dose, Ovaries [rad/mCi] | estimated absorbed radiation dose, Pancreas [rad/mCi] | estimated absorbed radiation dose, Red marrow [rad/mCi] | estimated absorbed radiation dose, Skin [rad/mCi] | estimated absorbed radiation dose, Spleen [rad/mCi] | estimated absorbed radiation dose, Testes [rad/mCi] | estimated absorbed radiation dose, Thymus [rad/mCi] | estimated absorbed radiation dose, Thyroid [rad/mCi] | estimated absorbed radiation dose, Urinary bladder wall [rad/mCi] | estimated absorbed radiation dose, Uterus [rad/mCi] | further results |
| --- | --- | --- | --- | --- | --- | --- | --- | --- | --- | --- | --- | --- | --- | --- | --- | --- | --- | --- |
| CNc1ccc(/C=C/c2ccc(OCCOCCOCC[18F])nc2)cc1 [18F-AV-45] | 0.05 | 0.037 | 0.023 | 0.048 | 0.048 | 0.032 | 0.032 | 0.065 | 0.053 | 0.053 | 0.022 | 0.033 | 0.025 | 0.027 | 0.025 | 0.1 | 0.058 | – |
| OC[C@H]1O[C@@H](O)[C@H]([18F])[C@@H](O)[C@@H]1O [FDG] | 0.048 | 0.07 | 0.034 | 0.22 | 0.074 | 0.064 | 0.039 | 0.053 | 0.096 | 0.047 | 0.03 | 0.14 | 0.041 | 0.044 | 0.039 | 0.32 | 0.062 | critical organ (radiation dose): urinary bladder wall, followed by heart, spleen and pancreas; estimated absorbed radiation dose, Gallbladder Wall (organ: Gallbladder Wall): 0.049 rad/mCi; estimated absorbed radiation dose, Liver (organ: Liver): 0.058 rad/mCi; estimated absorbed radiation dose, Lower Large Intestine Wall (organ: Lower Large Intestine Wall): 0.051 rad/mCi; estimated absorbed radiation dose, Small Intestine (organ: Small Intestine): 0.047 rad/mCi; estimated absorbed radiation dose, Upper Large Intestine Wall (organ: Upper Large Intestine Wall): 0.046 rad/mCi |
